Test system: TPM3-NTRK1-wt IC50 / primary target (e.g. CD74-ROS1-wt) IC50, Ba/F3 cells
Experiment: Cell assay TRKA selectivity (TRKA potency divided by primary target potency)
Assay type: cell-based
Settings: for TPM3-NTRK1-wt/CD74-ROS1-G2032R: TRKA selectivity ratio: TPM3-NTRK1-wt IC50 / CD74-ROS1-G2032R IC50, Ba/F3 cells; for TPM3-NTRK1-wt/CD74-ROS1-wt: TRKA selectivity ratio: TPM3-NTRK1-wt IC50 / CD74-ROS1-wt IC50, Ba/F3 cells; for TPM3-NTRK1-wt/EML4-ALK-L1196M-G1202R: TRKA selectivity ratio: TPM3-NTRK1-wt IC50 / EML4-ALK-L1196M-G1202R IC50, Ba/F3 cells; for TPM3-NTRK1-wt/EML4-ALK-wt: TRKA selectivity ratio: TPM3-NTRK1-wt IC50 / EML4-ALK-wt IC50, Ba/F3 cells
Method in brief: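 Ratio of TRKA to primary-target cellular IC50 (e.g. TPM3-NTRK1-wt/CD74-ROS1-wt), grouped into bins A >30, B >10, C ≥1, D <1. Each IC50 came from engineered Ba/F3 fusion lines grown without IL-3, dosed for 72 h and read as CellTiter-Glo luminescence, with a four-parameter logistic fit.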

Structure (SMILES) | TPM3-NTRK1-wt/CD74-ROS1-G2032R | TPM3-NTRK1-wt/CD74-ROS1-wt | TPM3-NTRK1-wt/EML4-ALK-L1196M-G1202R | TPM3-NTRK1-wt/EML4-ALK-wt
CC1Oc2cc(cnc2N)-c2c(n[nH]c2C#N)Cc2cnn(C)c2-c2ccc(F)cc21 (centres unmarked) [Example 168, 22-amino-16-fluoro-11,19-dimethyl-20-oxa-4,5,10,11,23-pentaazapentacyclo[19.3.1.0^2,^6.0^8,^12.0^13,^18]pentacosa-1(24),2,5,8(12),9,13,15,17,21(25),22-decaene-3-carbonitrile] | A (bin A for very high selectivity, ratio>30-fold) | A (bin A for very high selectivity, ratio>30-fold) | B (bin B for high selectivity, ratio>10-fold) | A (bin A for very high selectivity, ratio>30-fold)
CCn1ncc2c1-c1cnc(N)c(c1)OCc1cc(F)ccc1-n1nc(Cl)cc1C2 [Example 75, 10-chloro-3-ethyl-16-fluoro-20-oxa-3,4,11,12,23-pentaazapentacyclo[19.3.1.0^2,^6.0^8,^12.0^13,^18]pentacosa-1(24),2(6),4,8,10,13,15,17,21(25),22-decaen-22-amine] | A (bin A for very high selectivity, ratio>30-fold) | A (bin A for very high selectivity, ratio>30-fold) | C (bin C for moderate selectivity, ratio≥1) | A (bin A for very high selectivity, ratio>30-fold)
Cc1nc2c(s1)Cc1c(C)nn(CC3CC3)c1-c1cnc(N)c(c1)O[C@H](C)c1cc(F)ccc1-2 [Example 134, (19R)-3-(cyclopropylmethyl)-16-fluoro-5,10,19-trimethyl-20-oxa-9-thia-3,4,11,23-tetraazapentacyclo[19.3.1.0^2,^6.0^8,^12.0^13,^18]pentacosa-1(24),2(6),4,8(12),10,13,15,17,21(25),22-decaen-22-amine] | A (bin A for very high selectivity, ratio>30-fold) | A (bin A for very high selectivity, ratio>30-fold) | A (bin A for very high selectivity, ratio>30-fold) | A (bin A for very high selectivity, ratio>30-fold)
CCn1ncc2c1-c1cnc(N)c(c1)OCc1cc(F)ccc1-c1nc(C)sc1C2 [Example 89, 3-ethyl-16-fluoro-10-methyl-20-oxa-9-thia-3,4,11,23-tetraazapentacyclo[19.3.1.0^2,^6.0^8,^12.0^13,^18]pentacosa-1(24),2(6),4,8(12),10,13,15,17,21(25),22-decaen-22-amine] | A (bin A for very high selectivity, ratio>30-fold) | A (bin A for very high selectivity, ratio>30-fold) | B (bin B for high selectivity, ratio>10-fold) | A (bin A for very high selectivity, ratio>30-fold)
CCn1ncc2c1-c1cnc(N)c(c1)O[C@H](C)c1cc(F)ccc1-n1nc(C(F)F)cc1C2 [Example 102, (19R)-10-(difluoromethyl)-3-ethyl-16-fluoro-19-methyl-20-oxa-3,4,11,12,23-pentaazapentacyclo[19.3.1.0^2,^6.0^8,^12.0^13,^18]pentacosa-1(24),2(6),4,8,10,13,15,17,21(25),22-decaen-22-amine] | A (bin A for very high selectivity, ratio>30-fold) | A (bin A for very high selectivity, ratio>30-fold) | C (bin C for moderate selectivity, ratio≥1) | B (bin B for high selectivity, ratio>10-fold)
CCn1ncc2c1-c1ccc(F)cc1[C@@H](C)Oc1cc(cnc1N)-c1c(cnn1C)C2 [Example 4, (19R)-11-ethyl-16-fluoro-3,19-dimethyl-20-oxa-3,4,10,11,23-pentaazapentacyclo[19.3.1.0^2,^6.0^8,^12.0^13,^18]pentacosa-1(24),2(6),4,8(12),9,13,15,17,21(25),22-decaen-22-amine] | B (bin B for high selectivity, ratio>10-fold) | A (bin A for very high selectivity, ratio>30-fold) | D (bin D for low selectivity, ratio<1) | C (bin C for moderate selectivity, ratio≥1)
C[C@H]1Oc2cc(cnc2N)-c2c(cnn2CC(F)(F)F)Cc2cn(C)nc2-c2ccc(F)cc21 [Example 27, (19R)-16-fluoro-10,19-dimethyl-3-(2,2,2-trifluoroethyl)-20-oxa-3,4,10,11,23-pentaazapentacyclo[19.3.1.0^2,^6.0^8,^12.0^13,^18]pentacosa-1(24),2(6),4,8,11,13,15,17,21(25),22-decaen-22-amine] | A (bin A for very high selectivity, ratio>30-fold) | A (bin A for very high selectivity, ratio>30-fold) | A (bin A for very high selectivity, ratio>30-fold) | A (bin A for very high selectivity, ratio>30-fold)
C[C@H]1Oc2cc(cnc2N)-c2c(C#N)nn(C)c2Cc2cc(F)cnc2-c2ccc(F)cc21 [Example 105, (20R)-23-amino-10,17-difluoro-5,20-dimethyl-21-oxa-4,5,12,24-tetraazapentacyclo[20.3.1.0^2,^6.0^8,^13.0^14,^19]hexacosa-1(25),2(6),3,8(13),9,11,14,16,18,22(26),23-undecaene-3-carbonitrile] | A (bin A for very high selectivity, ratio>30-fold) | A (bin A for very high selectivity, ratio>30-fold) | B (bin B for high selectivity, ratio>10-fold) | A (bin A for very high selectivity, ratio>30-fold)
CCn1nc(C#N)c2c1-c1cnc(N)c(c1)O[C@H](C)c1cc(F)ccc1-c1nn(C)cc1C2 [Example 156, (19R)-22-amino-3-ethyl-16-fluoro-10,19-dimethyl-20-oxa-3,4,10,11,23-pentaazapentacyclo[19.3.1.0^2,^6.0^8,^12.0^13,^18]pentacosa-1(24),2(6),4,8,11,13,15,17,21(25),22-decaene-5-carbonitrile] | – | – | C (bin C for moderate selectivity, ratio≥1) | –
C[C@H]1Oc2cc(cnc2N)-c2c(nn(C)c2C#N)Cc2cccnc2-c2ccc(F)cc21 [Example 112, (20R)-23-amino-17-fluoro-4,20-dimethyl-21-oxa-4,5,12,24-tetraazapentacyclo[20.3.1.0^2,^6.0^8,^13.0^14,^19]hexacosa-1(25),2,5,8(13),9,11,14,16,18,22(26),23-undecaene-3-carbonitrile] | C (bin C for moderate selectivity, ratio≥1) | A (bin A for very high selectivity, ratio>30-fold) | D (bin D for low selectivity, ratio<1) | A (bin A for very high selectivity, ratio>30-fold)
Cc1cc2n(n1)-c1ccc(F)cc1COc1cc(cnc1N)-c1c(cnn1CC1CC1)C2 [Example 126, 3-(cyclopropylmethyl)-16-fluoro-10-methyl-20-oxa-3,4,11,12,23-pentaazapentacyclo[19.3.1.0^2,^6.0^8,^12.0^13,^18]pentacosa-1(24),2(6),4,8,10,13,15,17,21(25),22-decaen-22-amine] | A (bin A for very high selectivity, ratio>30-fold) | A (bin A for very high selectivity, ratio>30-fold) | A (bin A for very high selectivity, ratio>30-fold) | A (bin A for very high selectivity, ratio>30-fold)
CCn1ncc2c1-c1cnc(N)c(c1)O[C@H](C)c1cc(F)ccc1-n1ncc(F)c1C2 [Example 46, (19R)-3-ethyl-9,16-difluoro-19-methyl-20-oxa-3,4,11,12,23-pentaazapentacyclo[19.3.1.0^2,^6.0^8,^12.0^13,^18]pentacosa-1(24),2(6),4,8,10,13,15,17,21(25),22-decaen-22-amine] | A (bin A for very high selectivity, ratio>30-fold) | A (bin A for very high selectivity, ratio>30-fold) | C (bin C for moderate selectivity, ratio≥1) | A (bin A for very high selectivity, ratio>30-fold)
Cc1nn(CC2CC2)c2c1Cc1cn(C)nc1-c1ccc(F)cc1COc1cc-2cnc1N [Example 127, 3-(cyclopropylmethyl)-16-fluoro-5,10-dimethyl-20-oxa-3,4,10,11,23-pentaazapentacyclo[19.3.1.0^2,^6.0^8,^12.0^13,^18]pentacosa-1(24),2(6),4,8,11,13,15,17,21(25),22-decaen-22-amine] | A (bin A for very high selectivity, ratio>30-fold) | A (bin A for very high selectivity, ratio>30-fold) | A (bin A for very high selectivity, ratio>30-fold) | A (bin A for very high selectivity, ratio>30-fold)
Cn1nc(C#N)c2c1Cc1cccnc1-c1ccc(F)cc1COc1cc-2cnc1N [Example 101, 23-amino-17-fluoro-5-methyl-21-oxa-4,5,12,24-tetraazapentacyclo[20.3.1.0^2,^6.0^8,^13.0^14,^19]hexacosa-1(25),2(6),3,8(13),9,11,14,16,18,22(26),23-undecaene-3-carbonitrile] | A (bin A for very high selectivity, ratio>30-fold) | A (bin A for very high selectivity, ratio>30-fold) | A (bin A for very high selectivity, ratio>30-fold) | A (bin A for very high selectivity, ratio>30-fold)
